Laboratory results published in patent US4689318A, “GRF analogs” (The Salk Institute for Biological Studies, priority 1985, dated 1987).
No end group written: not given here.

Tested on: cells of rat pituitary glands
Assay: in vitro GH release from cultured rat pituitary cells, side-by-side with synthetic hGRF(1-40)-OH standard, ir GH by radioimmunoassay
Format: cell-based
Conditions: equimolar concentrations; rat pituitary cell cultures; 4 hours incubation; immunoreactive GH in culture medium
Method: As an example of testing the effectiveness of the synthetic peptide of Example I to promote the release of growth hormone, in vitro assays are carried out using synthetic hGRF(1-40)-OH as a standard in side-by-side comparison with equimolar concentrations of the various other analogs and fragments synthesized. Cultures are used which include cells of rat pituitary glands removed four days previous to testing. Cultures which are considered optimal for the secretion of growth hormone are used for the comparative testing, in the general manner described in Vale et al. Endocrinology, 91, 562-572 (1972) and as more particularly described in Vale et al., Endocrinology, 112, 1553-1555 (1983). Incubation with the substance to be tested is carried out for 4 hours, and aliquots of the culture medium are removed and processed to measure their respective content of immunoreactive GH(ir GH) by a well-characterized radioimmunoassay.

| Substance | potency to promote the release of growth hormone relative to the hpGRF(1-40)-OH standard |
| --- | --- |
| YADAIFSSAYRRLLAQLASRRLLQELLAR [Example II, [Ser^7,8,19, Ala^9,15,18,28, Arg^12,21, Leu^13,26,27]-hGRF(1-29)-OH] | equivalent to the hpGRF(1-40)-OH standard |
| YADAIFSSAYRRLLAQLASRRLLQELLAR-NH2 [Example I, [Ser^7,8,19, Ala^9,15,18,28, Arg^12,21, Leu^13,26,27]-hGRF(1-29)-NH2] | equivalent to the hpGRF(1-40)-OH standard |
